Columns and labels:
[1] = system: mouse hepatocyte cell lines (AML12); experiment: TGF-β-induced fibrosis, co-administration of curcumin derivative and EW-7197 (epithelial-mesenchymal conversion, BODIPY, α-SMA staining, Western blotting); assay type: cell-based; details: 2 ng/ml TGF-β, 24 hours, 1 μM Cur or Cur5-8, 10 μM EW-7197
Protocol: Fibrosis was induced in hepatocytes with TGF-β, a curcumin derivative and a TGF-β receptor inhibitor were co-administered, and then fibrosis and fat synthesis and degradation were checked.
Specifically, 2 ng/ml of TGF-β was administered to the cells of Example 1-1, the cells were divided into administration groups of vehicle (Veh), 1 μM curcumin (Cur), 1 μM curcumin 5-8 (Cur5-8), 0.5 μM EW-7197 (EW0.5), 10 μM EW-7197 (EW or EW10), 1 μM curcumin and 0.5 μM EW-7197 (EW0.5+Cur), 1 μM curcumin and 10 μM EW-7197 (EW+Cur or EW10+Cur), 1 μM curcumin 5-8 and 0.5 μM EW-7197 (EW0.5+Cur5-8), 1 μM curcumin 5-8 and 10 μM EW-7197 (EW+Cur5-8 or EW10+Cur5-8), respective samples were administered, and culturing was performed for 24 hours. The control group (Con) was not treated with either TGF-β or the sample. […] After washing with PBS 1×, stained cells were observed.
In addition, in order to check the degree of fibrosis of hepatocytes, the cells cultured for 24 hours were fixed with 4% paraformaldehyde and then stained by using α-SMA (Santa Cruz Biotechnology, Inc., Dallas, Texas, USA), an Alexafluor 488 (Cell Signaling Technology, Danvers, Massachusetts, USA) antibody, and DAPI (Abcam plc., Cambridge, MA, USA). The cells were mounted with a mounting solution (Fisher Scientific, Hampton, Rockingham, USA), the manufactured sample was photographed using a confocal microscope to obtain photographs of stained cells, and the degree of color development in the photographs of the stained cells was analyzed with the ImageJ program.
In addition, in order to confirm the degree of fibrosis of hepatocytes, the cells cultured for 24 hours were collected, and protein expressions of α-SMA, Collagen I (Coll), p-SMAD2, and p-SMAD3 were checked by Western blotting with fibrosis markers in the same method as described in <Example 1-3>.
In order to check a synergistic effect of inhibiting fibrosis caused by a TGF-β and inhibiting fat accumulation caused thereby in case of co-administration of a curcumin derivative (Cur5-8) and a TGF-β receptor inhibitor (EW-7197), epithelial-mesenchymal conversion of hepatocytes was confirmed through a cell experiment by the method described in Example 1-5, and BODIPY staining and α-SMA staining were performed. Also, protein expressions of α-SMA, Collagen I p-SMAD2, and p-SMAD3 were checked by Western blotting.

[2] = system: AML12 cells (mouse hepatocyte cell lines); experiment: Cytotoxicity of curcumin derivatives (MTT) with TGF-β treatment; assay type: cell-based; details: 2 ng/ml TGF-β; at concentrations other than 0.1 μM (1, 3, 5 μM); FIG. 1
Protocol: Cell experiments were performed by using AML12, […], and LX-2 cells, a human hepatic stellate cell.
AML12 cells were cultured in a culture medium made by adding 5 ml of insulin (ITS), 40 ng/ml of dexamethasone, 1% penicillin streptomycin (anti-anti), and 10% fetal bovine serum (FBS) to F-12 media (Corning Incorporated, USA, Arizona), a mixture of a DMEM medium and Ham's F-12 at a ratio of 50:50, which is used for culturing hepatocytes or prostate epithelial cells.
In order to confirm cytotoxicity, the cells of Example 1-1 were treated with 2 ng/ml of TGF-β, and then with curcumin (CUR), curcumin 5-8 (CURS-8), curcumin 4-8 (CUR4-8), and curcumin 5-14 (CURS-14) at 0.1, 1, 3, and 5 μM, respectively, for the same period of time. Thereafter, cells cultured in an incubator of 5% CO2 at 37° C. were stained with a tetrazolium dye capable of staining surviving cells (MTT), and absorbance was measured by using a spectrophotometer.
By a method described in Example 1-2, the numbers of surviving cells when curcumin (CUR) and curcumin derivatives (CUR5-8, CUR4-8, and CUR5-14) each were co-administered with TGF-β at respective concentrations were measured.

| SMILES | epithelial-mesenchymal conversion caused by TGF-β ([1]; FIG. 8) | liver fibrosis (α-SMA staining, fibrosis marker Western blotting) ([1]; FIGS. 8, 10, 11) | cytotoxicity (MTT) [2] |
| --- | --- | --- | --- |
| COc1cc(/C=C/C(=O)CC(=O)/C=C/c2ccc(O)c(OC)c2)ccc1O [Cur, curcumin] | not inhibited | liver fibrosis was induced | – |
| COc1cc(C#Cc2cncc(C#Cc3ccc(O)c(OC)c3)c2)ccc1O [Cur4-8, 4,4′-(3,5-Pyridinediyldi-2,1-ethynediyl)bis(2-methoxyphenol)] | – | – | cytotoxicity was high |

Source: patent publication US20230364069A1, “METHOD FOR TREATING NON-ALCOHOLIC STEATOHEPATITIS THROUGH CO-ADMINISTRATION OF CURCUMIN DERIVATIVE AND TGF-B RECEPTOR INHIBITOR” (UNIVERSITY INDUSTRY FOUNDATION, YONSEI UNIVERSITY WONJU …, priority 2021, published 2023)
